From patent publication EP2141163A1, “Substituted thiazolidinones, their production and utilisation as medicine” (Bayer Schering Pharma Aktiengesellschaft, priority 2008, dated 2010)
Like-named read-outs stand apart in the source and are kept apart here.

Tests used:
MCF-7 = test: Proliferation assay (crystal violet staining), MCF-7; type: cell-based, human; conditions: tumour cell proliferation, 4 days incubation, read-out: Inhibition IC50 [M] (MCF-7)
Method: (§1) Kultivierte humane Tumorzellen (MCF7, […] menschliche Mammakarzinomazellen, bezogen von ATCC HTB22; NCI-H460, menschliche nicht kleinzellige Lungenkarzinomazellen, ATCC HTB-177; DU 145, hormonunabhängige menschliche Prostatakarzinomazellen, ATCC HTB-81; HeLa-MaTu, humane Cervixkarzinomazellen, bezogen von EPO-GmbH, Berlin,) werden in einer Dichte von 5000 (MCF7, DU145) bzw. 3000 (NCI-H460, HeLa-MaTu) Zellen/Messpunkt in einer 96-Loch Multititerplatte in 200 µl des entsprechenden Wachstumsmediums ausplattiert. Nach 24 Stunden werden die Zellen einer Platte (Nullpunkt-Platte) mit Kristallviolett gefärbt (s.u.), während das Medium der anderen Platten durch frisches Kulturmedium (200 µl), dem die Testsubstanzen in verschiedenen Konzentrationen (0 µM, sowie im Bereich 0,01 - 30 µM; die finale Konzentration des Lösungsmittels Dimethylsulfoxid beträgt 0,5%) zugesetzt sind, ersetzt. Die Zellen werden für 4 Tage in Anwesenheit der Testsubstanzen inkubiert. Die Zellproliferation wird durch Färbung der Zellen mit Kristallviolett bestimmt: Die Zellen werden durch Zugabe von 20 µl/Messpunkt einer 11%igen Glutaraldehyd-Lösung 15 min bei Raumtemperatur fixiert. Nach dreimaligem Waschen der fixierten Zellen mit Wasser werden die Platten bei Raumtemperatur getrocknet. Die Zellen werden durch Zugabe von 100 µl/Messpunkt einer 0,1%igen Kristallviolett-Lösung (pH durch Zugabe von Essigsäure auf pH3 eingestellt) gefärbt. Nach dreimaligem Waschen der gefärbten Zellen mit Wasser werden die Platten bei Raumtemperatur getrocknet. Der Farbstoff wird durch Zugabe von 100 µl/Messpunkt einer 10%igen Essigsäure-Lösung gelöst. Die Extinktion wird photometrisch bei einer Wellenlänge von 595 nm bestimmt. Die prozentuale Änderung des Zellwachstums wird durch Normalisierung der Messwerte auf die Extinktionwerte der Nullpunktplatte (=0%) und die Extinktion der unbehandelten (0 µM) Zellen (=100%) berechnet. IC50-Werte werden nach einer 4-Parameterkurvenanpassung mit Hilfe eines Firmeneigenen Computerprogramms berechnet.

NCI-H460 = test: Proliferation assay (crystal violet staining), NCI-H460; type: cell-based, human; conditions: tumour cell proliferation, 4 days incubation, read-out: Inhibition IC50 [M] (NCI-H460)
Method: as §1

DU145 = test: Proliferation assay (crystal violet staining), DU145; type: cell-based, human; conditions: tumour cell proliferation, 4 days incubation, read-out: Inhibition IC50 [M] (DU145)
Method: as §1

PLK-1 = target: T1, PLK-1 (Homo sapiens, UniProt P53350); test: PLK-1 enzyme assay at 10 mM ATP (indirect HTRF assay); type: biochemical; conditions: read-out: Inhibition PLK-1 IC50 [M] (10 mM ATP)
T1 construct: Fusionsprotein bestehend aus GST und Plk (Kinase Domäne 33-345; MW 36 kDa, conc 0,8 µg/µl); GST; made in house; host or cells: Hi5 insect cells
Method: PLK Enzym-Assay (10 mM ATP)
Für den Kinaseassay wird aus Insektenzellen (Hi5) exprimiertes, durch Glutathion-Sepharose-Affinitätschromatographie und anschließender Gel-filtration (Suerdex 75) gereinigtes rekombinantes Fusionsprotein bestehend aus GST und Plk (Kinase Domäne 33-345; MW 36 kDa, conc 0,8 µg/µl) verwendet. Aliqots hiervon werden in flüssigem Stickstoff weggefroren und bei -80°C gelagert und nach dem Auftauen nur einmal verwendet.
Bei dem verwendeten Assay handelt es sich um einen indirekten HTRF-Assay, bei dem folgende Materialien und Verfahrensweisen zum Einsatz kamen. Als Substrat für die Kinasereaktion wird das biotinylierte Peptid Btn-Ahx-KKLNRTLSFAEPG-Amid x TFA, von Biosyntan, Probennr.: 6178.1 (C-Terminus in Amidform) verwendet. Hierbei handelt es sich um eine artifizielle Sequenz, die von keinem bekannten Protein abgeleitet wurde.
50 nl der in 100% Dimethylsulfoxid (DMSO) gelösten Testverbindungen (Endkonzentrationen : 0 µM und Konzentrationen im Bereich von 0,001 - 20 µM) werden mit 2 µl Enzym Arbeitslösung (0,039 ng/µl Plk-1 im Arbeitspuffer [25 mM MgCl2; 1mM DTT; 50 mM Hepes pH 7,0; 0,01% NP40; 1x Complete; 0,05% BSA] für 30 min vorinkubiert. Anschließend wird die Kinase-Reaktion durch Zugabe von 3 µl Substratlösung [16,7 mM Adenosintriphosphate (ATP) und 1,4 µM Substratpeptid (Biotin-Ttds- KKLNRTLSFAEPG -NH2)] in Arbeitspuffer gestartet, und nach 30 min durch Zugabe einer Abstopp-Lösung (100 mM EDTA, 100 mM Hepes pH 7,5, 800 mM Potassiumfluoride, 0,12% BSA, 0,4 µM SA-XLent (0,05 µM, von CIS bio international, Marcoule, Frankreich), Eu^3+ Cryptate-conjugated Rabbit anti-Mouse IgG (1,5 nM; ein mit Europiumkryptat markierter Anti-Maus-IgG-Antikörper von CIS bio international, Marcoule, Frankreich), 1 nM Anti-phospho-Serine Kinase (ein phospho-spezifischer Antikörper von Upstate Biotechnology, Dundee, Schottland), gestoppt, und bei 4°C über Nacht inkubiert. Danach wird die Menge des phosphorylierten Substratpeptids durch Messung des Resonanzenergietransfers vom Europium-markierten Antikörperkomplex zum Streptavidine-XLent bestimmt. Zu diesem Zweck wird die Fluoreszenzemission bei 620 nm und 665 nm nach Anregung bei 350 nm in einem HTRF-Messgerät, z. B. Rubystar (BMG Labtechnologies, Offenburg, Deutschland) oder Viewlux (Perkin-Elmer), bestimmt. Das Verhältnis der Emissionen bei 665 nm und bei 620 nm wird als Maß für die Menge des phosphorylierten Substratpeptids verwendet. Die Daten werden normalisiert (Enzymreaktion ohne Inhibitor = 0 % Inhibition, alle anderen Assaykomponenten, aber kein Enzym = 100 % Inhibition), und IC50-Werte werden durch einen 4 Parameter-Fit mit einer hauseigenen Software berechnet.

T1 sequence (P53350 33-345): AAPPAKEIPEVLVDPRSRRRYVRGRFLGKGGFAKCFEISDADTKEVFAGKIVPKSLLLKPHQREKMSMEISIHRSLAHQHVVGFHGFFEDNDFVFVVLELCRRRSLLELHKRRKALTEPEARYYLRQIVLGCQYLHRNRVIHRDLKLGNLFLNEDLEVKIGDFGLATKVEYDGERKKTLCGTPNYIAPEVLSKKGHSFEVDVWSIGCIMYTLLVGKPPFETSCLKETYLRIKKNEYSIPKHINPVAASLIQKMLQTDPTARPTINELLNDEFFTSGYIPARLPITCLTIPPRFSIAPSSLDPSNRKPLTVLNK

Compound	IC50 (MCF-7; Homo sapiens, MCF7, 96 h)	IC50 (NCI-H460; Homo sapiens, 96 h)	IC50 (DU145; Homo sapiens, DU-145, 96 h)	IC50 (PLK-1)	IC50 (MCF-7)	IC50 (NCI-H460)	IC50 (DU145)
CCn1c(=O)c(=CNc2ccc3ccn([C@H]4CCCC[C@H]4N(C)C)c3c2)s/c1=C(/C#N)C(=O)NCC#N (relative stereo) [B193]	1.8e-07 M	2.6e-07 M	1.8e-07 M	1.4e-08 M	–	–	–
CCn1c(=C(C#N)C(=O)NCC(F)(F)F)sc(=CNc2ccc3c(c2)N(C2CCN(C)CC2)CC3)c1=O [B01]	4.4e-07 M	1.9e-07 M	1.3e-07 M	5.7e-09 M	–	–	–
CCn1c(=O)c(=CNc2ccc3ccn(C4CCN(C)CC4)c3c2)s/c1=C(/C#N)C(=O)NCC(F)(F)F [B03, (Z,E/Z)-2-Cyan-2-[3-ethyl-5-[[[1-(1-methyl-4-piperidinyl)-1H-indol-6-yl]amino]methylen]-4-oxo-2-thiazolidinyliden]-N-(2,2,2-trifluorethyl)acetamid]	–	–	–	1.6e-09 M	1.4e-07 M	9.6e-08 M	5.1e-08 M
CCn1c(=C(C#N)C(=O)NCC#N)sc(=CNc2ccc3ccn(C4CCN(C)CC4)c3c2)c1=O [B04]	7.2e-08 M	1.4e-07 M	2.9e-08 M	2.9e-09 M	–	–	–
CCn1c(=C(C#N)C(=O)NC(C)(C)CO)sc(=CNc2ccc3ccn(C4CCN(C)CC4)c3c2)c1=O [B06]	2.4e-07 M	1.5e-07 M	1.2e-07 M	1e-08 M	–	–	–
CCn1c(=O)c(=CNc2ccc3c(CN4CCCCC4)cn(C)c3c2)s/c1=C(/C#N)C(=O)NCC#N [B08]	6.1e-07 M	3.3e-07 M	1.4e-07 M	5.4e-09 M	–	–	–
CCn1c(=O)c(=CNc2ccc3c(c2)c(CCN2CCCC2)cn3C)s/c1=C(/C#N)C(=O)NCC(F)(F)F [B35]	6.4e-07 M	3.3e-07 M	1.8e-07 M	5.9e-09 M	–	–	–
CCn1c(=C(C#N)C(=O)NCC(F)(F)F)sc(=CNc2ccc3c(c2)c(CCN(C)C)cn3C)c1=O [B39]	3.8e-07 M	4.8e-07 M	1.8e-07 M	6.1e-09 M	–	–	–
CCn1c(=C(C#N)C(=O)NCC#N)sc(=CNc2ccc3cnn(C4CCN(C(C)C)CC4)c3c2)c1=O [B44]	2e-07 M	4.9e-07 M	1.1e-07 M	1.1e-09 M	–	–	–
CCN1CCCC1Cn1ccc2ccc(NC=c3sc(=C(C#N)C(=O)NCC(F)(F)F)n(CC)c3=O)cc21 (stereo not drawn) [B58]	3.7e-07 M	4.8e-07 M	3.2e-07 M	2e-08 M	–	–	–
CCn1c(=C(C#N)C(=O)NCC(F)(F)F)sc(=CNc2ccc3ccn(C4CCOCC4)c3c2)c1=O [B59]	3.9e-07 M	1.8e-07 M	1.7e-07 M	3.7e-08 M	–	–	–
CCn1c(=C(C#N)C(=O)NCC(F)(F)F)sc(=CNc2ccc3ccn(C4CCN(CC(N)=O)CC4)c3c2)c1=O [B71]	1.4e-07 M	2.1e-07 M	1.2e-07 M	8.2e-09 M	–	–	–
CCn1c(=C(C#N)C(=O)NCC(F)(F)F)sc(=CNc2ccc3ccn(C4CCN(CC(=O)OC)CC4)c3c2)c1=O [B72]	1.2e-07 M	1.1e-07 M	1.2e-07 M	3.9e-09 M	–	–	–
CCn1c(=C(C#N)C(=O)NCC(F)(F)F)sc(=CNc2ccc3ccn(CC(=O)N(C)C)c3c2)c1=O [B80]	3.1e-07 M	8.9e-07 M	5.1e-07 M	4.9e-08 M	–	–	–
CCn1c(=C(C#N)C(=O)NCC#N)sc(=CNc2ccc3cn(C4CCN(C(C)C)CC4)nc3c2)c1=O [B102]	1.9e-07 M	6.2e-07 M	2.8e-07 M	2.2e-08 M	–	–	–
CCCN1CCC(c2cn(CC)c3ccc(NC=c4sc(=C(C#N)C(=O)NCC#N)n(CC)c4=O)cc23)CC1 [B109]	1.4e-07 M	1.6e-07 M	5.4e-08 M	3.5e-09 M	–	–	–
CCn1c(=C(C#N)C(=O)NCC#N)sc(=CNc2ccc3c(c2)c(C2CCN(C4CC4)CC2)cn3C)c1=O [B115]	1.1e-07 M	1.3e-07 M	3.7e-08 M	1.3e-09 M	–	–	–
CCn1c(=O)c(=CNc2ccc3c(c2)c(C2CCN(C)CC2)cn3C)s/c1=C(/C#N)C(=O)NCC(F)(F)F [B118, (Z,E/Z)-2-Cyan-2-[3-ethyl-5-[[[1-methyl-3-(1-methyl-4-piperidinyl)-1H-indol-5-yl]amino]methylen]-4-oxo-2-thiazolidinyliden]-N-(2,2,2-trifluorethyl)acetamid]	2.9e-07 M	1.7e-07 M	8.5e-08 M	2.1e-09 M	–	–	–
CCn1c(=O)c(=CNc2ccc3c(c2)c(C2CCN(C4CC4)CC2)cn3C)s/c1=C(/C#N)C(=O)NCC(F)(F)F [B123]	6.2e-07 M	5e-07 M	2.3e-07 M	1.2e-08 M	–	–	–
CCn1c(=O)c(=CNc2ccc3c(C4CCN(C)CC4)cn(C)c3c2)s/c1=C(/C#N)C(=O)NCC#N [B130]	1.4e-07 M	3.7e-07 M	8.4e-08 M	1e-09 M	–	–	–
CCn1c(=C(C#N)C(=O)NCC(F)(F)F)sc(=CNc2ccc3ccn(CCN4CCCC4)c3c2)c1=O [B132]	4.5e-07 M	4e-07 M	2.2e-07 M	3.3e-09 M	–	–	–
CCn1c(=O)c(=CNc2ccc3ncn(C4CCN(C)CC4)c3c2)s/c1=C(/C#N)C(=O)NCC(F)(F)F [B147]	2.4e-07 M	2.4e-07 M	1.3e-07 M	3.1e-09 M	–	–	–
CCn1c(=O)c(=CNc2ccc3c(Cl)cn(C4CCN(C)CC4)c3c2)s/c1=C(/C#N)C(=O)NCC#N [B153]	4.2e-07 M	5.9e-07 M	1.4e-07 M	1e-09 M	–	–	–
CCn1c(=O)c(=CNc2ccc3ccn(C4CC(C)(C)N(C)C(C)(C)C4)c3c2)s/c1=C(/C#N)C(=O)NCC#N [B162]	1.4e-07 M	3.7e-08 M	3.5e-08 M	3.7e-09 M	–	–	–
CCn1c(=O)c(=CNc2ccc3c(Cl)cn([C@H]4CC[C@H](N(C)C)CC4)c3c2)s/c1=C(/C#N)C(=O)NCC#N [B165]	1.7e-07 M	6.1e-07 M	1.8e-07 M	1.3e-09 M	–	–	–
CCn1c(=O)c(=CNc2ccc3ccn(C4CCN(C)CC4)c3c2)s/c1=C(/C#N)C(=O)NC(c1ccco1)C(F)(F)F (stereo not drawn) [B176]	1.2e-07 M	3.9e-07 M	2.1e-07 M	6.2e-08 M	–	–	–
CCn1c(=O)c(=CNc2ccc3c(C(=O)C(C)(C)C)cn(C4CCN(C)CC4)c3c2)s/c1=C(/C#N)C(=O)NCC#N [B183]	1.6e-07 M	3.2e-07 M	1.3e-07 M	4.2e-09 M	–	–	–
